Experiments:
Lgr5+ stem cells = assay: Controlled differentiation of Lgr5+ stem cells after CV culture (RT-PCR and staining of differentiation markers); type: cell-based, mouse; settings: colonies from 6 days CV, then 4 days with ENR plus agents (FIG. 7B)
[1] = test system: Lgr5+ stem/progenitor cells derived from the mouse inner ear; assay: Culture of inner ear (cochlear) Lgr5-GFP epithelial cells in Matrigel; type: cell-based; settings: organ of Corti single cells, Matrigel, 8 days
Excerpt: The same culture condition (EGF, Noggin, R-spondin1, or “ENR”) as used in Lgr5+ small intestinal stem cell cultures was first established.
Isolated organ of Corti from Lgr5-GFP mice were dissociated into single cells using accutase and cultured in multiple combinations of soluble factors and small molecules in Matrigel for 8 days. The resulting cultures were further dissociated into single cells and analyzed using FACS. […] In addition, the combination of EGF, bFGF and IGF-1 (designated as EFI) improved cell proliferation and GFP expression compared with the ENR condition (FIG. 14A-14C).
To further investigate the effects of individual growth factors when combined with CHIR and VPA, growth factors including Mitogenic growth factors (EGF, bFGF and IGF-1) as well as the Wnt agonist R-spondin 1 in combination with CHIR and VPA were tested.

[2] = test system: Lgr5+ stem cells in small intestinal crypts; assay: Small intestinal crypt culture from Lgr5-GFP mice in Matrigel: cell proliferation and Lgr5-GFP expression; type: cell-based, mouse
Procedure: Crypts and single Lgr5-GFP cells were isolated as previously described (Sato et al., 2009). Briefly, the proximal half of the small intestine was harvested, opened longitudinally, and washed with cold PBS to remove luminal content. The tissue was then cut into 2-4 mm pieces with scissors and further washed 5-10 times with cold PBS by pipetting up and down using a 10-ml pipette. Tissue fragments were incubated with 2 mM EDTA in PBS for 30 min on ice. After removal of EDTA, tissue fragments were washed with PBS to release crypts. Supernatant fractions enriched in crypts were collected, passed through a 70 μm cell strainer and centrifuged at 300 g for 5 minutes. The cell pellet was re-suspended with cell culture media without growth factors and centrifuged at 150 g to remove single cells. Crypts were then cultured or used for single cell isolation. To obtain single cells, crypts were incubated in culture medium for 45 minutes at 37° C. and triturated with a glass pipette. Dissociated cells were passed through 20 μm cell strainer, negative stained with propidium iodide and single viable GFP-high cells were sorted by flow cytometry (FACS Aria, BD) as previously described (Sato et al., 2009). Small intestinal crypts isolated from Lgr5-EGFP-ires-CreERT2 mice were embedded in Matrigel and cultured under conventional culture conditions in the presence of EGF, Noggin and R-spondin 1 (collectively referred to as ENR) leading to organoids with crypts and villus-like domains and GFP^+ cells at the crypt tips, consistent with previous reports (Sato et al., 2009). Isolated crypts or single cells were cultured as previously described (Sato et al., 2009) with minimal modification. Briefly, crypts or single cells were entrapped in Matrigel and plated at the center of wells in a 24-well plate. After polymerization of Matrigel (growth factor reduced; BD Bioscience), 500 μl of culture medium (Advanced DMEM/F12 (Life Technologies)) was added containing growth factors including EGF (50 ng/ml, Life Technologies), Noggin (100 ng/ml, Peprotech) and R-spondin 1 (500 ng/ml, R&D) and small molecules including CHIR99021 (3 μM, Stemgent) and Valproic Acid (1 mM, Sigma-Aldrich). For comparison of different culture conditions, small molecules or growth factors were added to freshly isolated crypts immediately after plating in Matrigel to test the ability to minimize potential differentiation of the ISC within the crypts and thus sustain crypt cultures. Cell culture media was changed every other day. For single cell culture, cells were embedded in Matrigel containing Jagged-1 peptide (1 μM; AnaSpec) and Y-27632 (10 μM; Tocris) was added for the first 2 days. Cells were passaged either as cell colonies as previously described (Sato et al., 2009) or as single cells. For single cell passage, cell culture medium was removed and Accutase (Life Technologies) was added. After incubation at 37° C. for 10-20 minutes, cell colonies were dissociated into single cells by pipetting. Cells were then washed, embedded in fresh Matrigel and plated into 24-well plates. Cells cultured in the CV condition were passaged every 6 days at a 1:20 split ratio. Approximately half of the cultured crypts contained GFP+ cells, which is consistent with the in vivo GFP expression of Lgr5-GFP mice (FIG. 1).
The growth factors used in the ENR condition provide essential, but not adequate cues to sustain the self-renewal of Lgr5^+ stem cells. To identify factors essential to maintaining the self-renewal status of intestinal stem cells, selected small molecules that modulate signaling pathways of ISCs, such as Wnt, Notch, and BMP, were tested under the ENR condition, using the Lgr5-GFP reporter.
CHIR is a highly-specific GSK3 inhibitor that activates the Wnt/β-catenin signaling pathway (Bain et al., 2007), and has been used to maintain the self-renewal state of embryonic stem cells (Ying et al., 2008). […]

[3] = crypts cultured 6 days, agent added to ENR condition
[4] = multiple concentrations (FIG. 9E)

## Cc1cnc(-c2cnc(NCCNc3ccc(C#N)cn3)nc2-c2ccc(Cl)cc2Cl)[nH]1 [CHIR99021, 6-[[2-[[4-(2,4-Dichlorophenyl)-5-(5-methyl-1H-imidazol-2-yl)-2-pyrimidinyl]amino]ethyl]amino]-3-pyridinecarbonitrile]
Lgr5+ stem cells
  ChgA expression: did not significantly influence
[1]
  GFP expression (in words): not CHIR or VPA alone
  cell proliferation (in words): not CHIR or VPA alone
[2]; [3]
  GFP expression (percentage and relative GFP intensity of GFP+ cells): increased the percentage and relative GFP intensity
[2]; crypts cultured 6 days, agent added to ENR condition, compared to ENR
  cell proliferation of crypt cells (organoid size and cell numbers): promoted the proliferation
[2]; increasing the concentration of CHIR, crypts 6 days
  need of R-Spondin1 to promote GFP expression: eliminated the need of R-Spondin1

## CCCC(CCC)C(=O)O [Valproic Acid]
Lgr5+ stem cells
  ChgA expression: lower level of expression
  Lysozyme expression: lower level of expression
  Muc2 expression: lower level of expression
[1]
  GFP expression (in words): not CHIR or VPA alone
  cell proliferation (in words): not CHIR or VPA alone
[2]; ENR-C with DAPT 5 μM and VPA 0.25-4 mM, 3 days
  rescue of cell proliferation and GFP expression following Notch inhibition: rescued
[2]; [3]
  GFP expression (percentage and relative GFP intensity of GFP+ cells): significantly increased
[2]; [4]
  GFP expression at multiple concentrations: maintained GFP expression
  cell proliferation at higher concentration: marked proliferation inhibition effect

Reference: patent US10041047B2, “Compositions and methods for epithelial stem cell expansion and culture” (The Brigham and Women's Hospital, Inc., priority 2013, dated 2018)
